Measured values reported in patent US20080300298A1, “Honokiol Derivates For the Treatment of Proliferative Disorders” (priority 2005, published 2008).
Where two headings read alike, the source gives them in different places.

What was measured:
[1] = system: HIV-1; test: HIV assay in PBM cells (RT activity); type: cell-based; conditions: Human immunodeficiency virus 1, PBMC, HIV-1 in human PBM cells; for EC50: read-out: Activity anti-VIH-1 on PBM cells EC50; for EC90: read-out: Activity anti-VIH-1 on PBM cells EC90
Procedure: The antiviral activity of the synthesized compounds and honokiol were evaluated against HIV-1 in human peripheral blood mononuclear (PBM) cells (Table 4).
Human peripheral blood mononuclear (PBM) cells (which can be obtained from Atlanta Red Cross) can be isolated by Ficoll-Hypaque discontinuous gradient centrifugation from healthy seronegative donors. Cells can be stimulated with phytohemagglutinin A (Difco, Sparks, Md.) for 2-3 days prior to use. HIV-1, such as HIV-1LAI can be obtained from the Centers for Disease Control and Prevention (Atlanta, Ga.), and can be used as the standard reference virus for the antiviral assays. The molecular infectious clones HIV-1xxBru and HIV-1M184Vpin can be obtained from Dr. John Mellors (University of Pittsburgh). Infections can be done in bulk for one hour, either with 100 TCID50/1×10^7 cells for a flask (T25) assay or with 200 TCID50/6×10^5 cells/well for a 24 well plate assay. Cells can be added to a plate or flask containing a ten-fold serial dilution of the test compound. Assay medium can be RPMI-1640 supplemented with heat inactivated 16% fetal bovine serum, 1.6 mM L-glutamine, 80 IU/ml penicillin, 80 μg/ml streptomycin, 0.0008% DEAE-Dextran, 0.045% sodium bicarbonate, and 26 IU/ml recombinant interleukin-2 (Chiron Corp, Emeryville, Calif.). AZT can be used as a positive control for the assay. Untreated and uninfected PBM cells can be grown in parallel at equivalent cell concentrations as controls. The cell cultures can be maintained in a humidified 5% CO2-air at 37° C. for 5 days and supernatants can be collected for reverse transcriptase (RT) activity.
Supernatants can be centrifuged at 12,000 rpm for 2 hours to pellet the virus. The pellet can be solubilized with vortexing in 100 μl virus solubilization buffer (VSB) containing 0.5% Triton X-100, 0.8 M NaCl, 0.5 mM phenylmethylsulfonyl fluoride, 20% glycerol, and 0.05 M Tris, pH 7.8. Ten μL of each sample can be added to 75 μL RT reaction mixture (0.06 M Tris, pH 7.8, 0.012 M MgCl2, 0.006 M dithiothreitol, 0.006 mg/ml poly (rA)n, oligo (dT)12-18, 96 μg/ml dATP, and 1 μM of 0.08 mCi/ml ^3H-thymidine triphosphate (Moravek Biochemicals, Brea, Calif.) and can be incubated at 37° C. for 2 hours. The reaction can be stopped by the addition of 100 μL 10% trichloroacetic acid containing 0.05% sodium pyrophosphate. The acid insoluble product can be harvested onto filter paper using a Packard Harvester (Meriden, Conn.), and the RT activity can be read on a Packard Direct Beta Counter (Meriden, Conn.). The RT results can be expressed in counts per minute (CPM) per milliliter. The antiviral 50% effective concentration (EC50) and 90% effective concentration (EC90) can be determined from the concentration-response curve using the median effect method (Belen'kii, S. M.; Schinazi, R. S. Multiple drug effect analysis with confidence interval. Antiviral. Res. 1994, 25, 1-11).

[2] = cytotoxicity assay (MTT); type: cell-based, human; conditions: human
Procedure: (§1) The cytotoxicity of the honokiol and analogues thereof were assessed in human PBM, CEM and Vero cells (Table 4). Compounds can be evaluated for their potential toxic effects on uninfected human PBM cells, in CEM (T-lymphoblastoid cell line obtained from American Type Culture Collection, Rockville, Md.) and Vero (African green monkey kidney) cells. PBM cells can be obtained from whole blood of healthy seronegative donors (HIV-1) by single-step Ficoll-Hypaque discontinous gradient centrifugation. […] All of the cells can be plated in 96-well cell culture plates containing ten-fold serial dilutions of the test drug. […] At the end of incubation, MTT tetrazolium dye solution (Cell titer 96®, Promega, Madison, Wis.) can be added to each well and incubated overnight. The reaction can be stopped with stop solubilization solution (Promega, Madison, Wis.). […] The plates can be read at a wavelength of 570 nm using an ELISA plate reader (Bio-tek instruments, Inc., Winooski, Vt., Model #EL 312e). The 50% inhibition concentration (IC50) can be determined from the concentration-response curve using the median effect method.

[3] = cytotoxicity assay (MTT); type: cell-based; conditions: for EC50 at 3 days: African green monkey; for EC50 at 4 days: human
Procedure: as §1

[4] = toxicity in mice (Table 5); conditions: mouse, in vivo
Excerpt: In vivo models of cancer growth include xenografts of human tumor cells injected into animals, such as mice, particularly immunocomprimised mice. Toxicity of the compounds can also be assessed in these assays through daily administration of the compounds to the animals combined with daily monitoring of the animals. The animals can also be monitored for two weeks to look for weight loss, as well as other common toxicities known to one skilled in the art, such as altered grooming, decreased movement of mice, and tremor. The compounds can also be tested for their ability to inhibit tumor growth in animals. SVR angiosarcoma tumor cells, for example, can be injected into animals, such as immunocompromised mice. Mice can be injected with approximately one million SVR cells subcutaneously, and when tumors become palpable, can be treated with a beginning dose (such as 120 mg/kg intraperitoneally) once daily. Drugs that are active at 120 mg/kg can then be retested at lower doses of 80 mg/kg, 40 mg/kg, etc. Tumor volume can be calculated using the formula (w2×L)0.52, where w (width) represents the smallest dimension of the tumor. Mice can be treated for a period of time such as approximately 30 days, or until tumor growth reaches 1 cm^3.

[5] = system: SVR (a transformed endothelial cell line); test: SVR cellular proliferation assay; type: cell-based; conditions: Mus musculus, SVR cells; for inhibition at 10 µg/mL: 10 μg/mL; for inhibition at 15 µg/mL: 15 μg/mL
Procedure: The SVR (a transformed endothelial cell line) proliferation assay can be used as a direct measure of antiangiogenic and antitumor activity. This assay serves as a high throughput screen that compares the effects of a compound on proliferation of SVR cells versus an immortalized endothelial cell line, MS1. […] SVR cells were plated in 24-well dishes. The next day, the medium was replaced with fresh medium containing the inhibitors or vehicle controls. Cells were incubated at 37° C. for 72 h (Arbiser, J. L., et al. 1999 J. Am. Acad. Dermatol. 40, 925-929; LaMontagne, K. R., et al. 2000 Am. J. Pathol. 157, 1937-1945), and cell number was determined in triplicate using a Coulter Counter (Hialeah, Fla.). Immortalized and K-Ras transformed rat epithelial cells (RIEpZip and […]) and fibroblasts (NIH3T3 pZip and NIH3T3 pZipK-Ras12V) were maintained at 37° C., 10% CO2, in Dulbecco's modified Eagle's medium supplemented with 5% fetal calf serum (RIE) or 10% calf serum (NIH3T3) (Oldham, S. M., et al. 1996 Proc. Natl. Acad. Sci. U.S.A. 93, 6924-6928; Pruitt, K., et al. 2000 J. Biol. Chem. 275, 40916-40924). Cells were plated at 10^5/well in six-well plates.

[6] = uninfected PBM cells, read-out: Cytotoxicity (EC50-μM) in: PBM
[7] = Vero cells, read-out: Cytotoxicity (EC50-μM) in: VERO
[8] = CEM cells, read-out: Cytotoxicity (EC50-μM) in: CEM
[9] = Vero kidney cells, Vero cells, read-out: Cytotoxicity (EC50-μM) in: VERO
[10] = CEM T-lymphoblastoid cells, CEM cells, read-out: Cytotoxicity (EC50-μM) in: CEM

SMILES	inhibition at 10 µg/mL [5] [%]	inhibition at 15 µg/mL [5] [%]	further results
C=CCc1ccc(O)c(-c2cc(CC=C)ccc2O)c1	–	–	EC50 [1]: 69.3 µM; EC90 [1]: > 100 µM; EC50 at 5 days [2, 6]: 38.6 µM; EC50 at 3 days [3, 7]: 79.9 µM; EC50 at 4 days [3, 8]: 99.6 µM
C=CCC1=C(CC=C)C(=O)c2ccccc2C1=O	87.5	91.5	Toxicity [4]: Toxic
C=CCc1ccc(OS(=O)(=O)c2ccccc2)c(-c2ccc(OS(=O)(=O)c3ccccc3)c(CC=C)c2)c1	35.3	37.9	–
C=CCc1ccc(O)c(CC=C)c1O	37.2	36	–
C=CCc1cc(-c2cccc(CC=C)c2O)ccc1O	74.2	81.6	–
C=CCc1c(O)ccc2c3ccccc3n(CC=C)c12	69.7	78.7	–
C=CCc1cc2c3ccccc3n(CC=C)c2cc1O	68.9	76.1	–
O=C(CCc1ccccc1)Oc1cc(OC(=O)CCc2ccccc2)cc(OC(=O)CCc2ccccc2)c1	5	25	–
C=CCc1cccc(-c2ccccc2O)c1O	47.1	59.3	–
C=CCc1cc(Cc2ccc(O)c(CC=C)c2)ccc1O	75.5	73.7	Toxicity [4]: Toxic
C=CCOc1ccc(/C=C/C(=O)CC(=O)/C=C/c2ccc(OCC=C)c(OC)c2)cc1OC	70	67.9	–
C=CCOc1ccc(/C=C/C(=O)CC(=O)/C=C/c2ccc(O)c(OC)c2)cc1OC	75.2	78.8	–
C=CCc1cc(/C(CC)=C(\CC)c2ccc(O)c(CC=C)c2)ccc1O	68.4	89.3	Toxicity [4]: Toxic
O=C(/C=C/c1ccccc1)Oc1cc(OC(=O)/C=C/c2ccccc2)cc(OC(=O)/C=C/c2ccccc2)c1	13.4	8.6	–
C=CCc1cc(-c2ncc(O)cn2)ccc1O	4.4	10	–
C=CCc1cc(C(C)(C)c2ccc(O)c(CC=C)c2)ccc1O	32.9	57.1	–

SMILES	inhibition at 10 µg/mL [5] [%]	inhibition at 15 µg/mL [5] [%]	further results
C=CCOc1cc2c(cc1OCC=C)C1c3ccc(OCC=C)c(OCC=C)c3OCC1(O)C2 (stereo not drawn)	13.8	41.8	–
C=CCc1cc(C(=C(Cl)Cl)c2ccc(O)c(CC=C)c2)ccc1O	53.6	75.6	–
C=CCc1cc(C(c2ccc(O)c(CC=C)c2)c2ccccn2)ccc1O	25.2	46.1	–
C=CCc1ccc2c(c1)-c1cc(CC=C)ccc1OC(C)(C)O2 [drawing 42]	–	–	EC50 [1]: 13.6 µM; EC90 [1]: 43.3 µM; EC50 at 5 days [2, 6]: 75.3 µM; EC50 at 3 days [3, 9]: > 100 µM; EC50 at 4 days [3, 10]: 11.6 µM
C=CCc1ccc(O)c(-c2ccc(O)c(CC=C)c2)c1 [drawing 43]	–	–	EC50 [1]: 3.3 µM; EC90 [1]: 22.7 µM; EC50 at 5 days [2]: 16.1 µM; EC50 at 3 days [3]: 22.5 µM; EC50 at 4 days [3]: 10.9 µM
CCCc1ccc(O)c(-c2ccc(O)c(CCC)c2)c1 [drawing 44]	–	–	EC50 [1]: 16.9 µM; EC90 [1]: 69.4 µM; EC50 at 5 days [2, 6]: 45.9 µM; EC50 at 3 days [3, 9]: 19.8 µM; EC50 at 4 days [3, 10]: 10.4 µM
C=CCc1ccc(OC)c(-c2ccc(OC)c(CC=C)c2)c1 [drawing 45]	–	–	EC50 [1]: 54.3 µM; EC90 [1]: > 100 µM; EC50 at 5 days [2, 6]: > 100 µM; EC50 at 3 days [3, 9]: > 100 µM; EC50 at 4 days [3, 10]: 19.1 µM
C=CCc1cccc(-c2cccc(CC=C)c2O)c1O [drawing 46]	–	–	EC50 [1]: 34.8 µM; EC90 [1]: 63 µM; EC50 at 5 days [2, 6]: > 100 µM; EC50 at 3 days [3, 9]: > 100 µM; EC50 at 4 days [3, 10]: > 100 µM
C=CCc1cc(-c2ccc(O)c(CC=C)c2)ccc1O [drawing 47]	–	–	EC50 [1]: 19.4 µM; EC90 [1]: 66.4 µM; EC50 at 5 days [2, 6]: > 100 µM; EC50 at 3 days [3, 7]: 33.2 µM; EC50 at 4 days [3, 8]: 23 µM
C=CCc1ccc(O)c(-c2ccc(O)c(CC=C)c2)c1 [drawing 48]	59.9	85	–
CCCc1ccc(O)c(-c2ccc(O)c(CCC)c2)c1 [drawing 49]	79.2	89.6	–
C=CCc1cccc(-c2cccc(CC=C)c2O)c1O [drawing 50]	40.8	57.2	–
C=CCc1ccc2c(c1)-c1cc(CC=C)ccc1OC(C)(C)O2 [drawing 54]	61.9	59.7	–
C=CCc1ccc(OC)c(-c2ccc(OC)c(CC=C)c2)c1 [drawing 55]	40.6	47.2	–
C=CCc1cc(-c2ccc(O)c(CC=C)c2)ccc1O [drawing 56]	44.9	56.2	Toxicity [4]: Toxic
